Earlier results on six molecules are cited in patent US20240016441A1 (priority 2023, published 2024).

The subject of series [1] is BDNF. As to conditions: male athletes, p<0.05.
Series [2] concerns dopaminergic neurons. As to conditions: related to a glyoxalase pathway.
For series [3] the following is noted: for plasma L-lactate to brain metabolism: occipital-parietal lobe.
For series [4], the system named is dopaminergic neurons. As to conditions: neurons treated with L-lactate.
Series [5] deals with glabellar reflex. The note with it: successful levodopa treatment, patients with Parkinson's disease.
For series [6] the following is noted: 84 mEq/L at 5 ml*kg^-1*h^-1 for 3.5 hours, single anesthetized patient.
The conditions of series [7]: in vivo.
For series [8] the following is noted: traumatic brain injury patients and healthy controls.

Like-named read-outs stand apart in the source and are kept apart here.

As to `CC(O)C(=O)[O-].[Na+]` (racemic) [sodium DL-lactate], in series [1], the BDNF blood concentration entry is listed as “increase”.
In the case of `C[C@@H](O)C(=O)O` [D-lactate], the “survival of dopaminergic neurons” value in series [2] is on record as “increase survival of dopaminergic neurons”.
As for `C[C@H](O)C(=O)O` [L-lactate], the figures for the “plasma L-lactate to brain metabolism” value in series [3] (basal plasma L-lactate concentrations of ~1.0 mmol/L) and in series [3] (high physiologic plasma concentrations) were 10% and at most 60%, respectively. Also, in series [4], the “effect on dopaminergic neurons” value is on record as “apoptosis of dopaminergic neurons”.
In the case of `N[C@@H](Cc1ccc(O)c(O)c1)C(=O)O` [levodopa], the glabellar reflex result in series [5] is on record as “reversal of the glabellar reflex”.
For the molecule `C[C@H](O)C(=O)[O-].[Na+]` [sodium L-lactate], the vital signs entry in series [6] is reported as “without any significant change in vital signs”. Further, the adverse effects result in series [7] is “without any adverse effects”.
As for `[13CH3]C(O)C(=O)[O-].[Na+]` [sodium [3-^13C] L-lactate], in series [8], the complications result is reported as “without serious complications” and the “peak L-lactate blood concentration” value is recorded as 10.6 mg/dL. Besides, the adverse effects result in series [3] (350 mmol/L, priming dose then continuous infusion for ~120 min) is on record as “without any adverse effects”.
